Measurements: ChEMBL document CHEMBL3045546, “Synthesis and antimicrobial screening of 4-thiazolidinone and 2-azetidinone derivatives of piperazine” (2013)
In brackets after ≈: the same amount, converted by molar mass.

Experiments:
Assay type in all cases: functional
[1] = system: Staphylococcus epidermidis; assay: Antimicrobial activity against Staphylococcus epidermidis ATCC 12228 assessed as growth inhibition by broth dilution method
[2] = system: Proteus vulgaris; assay: Antimicrobial activity against Proteus vulgaris ATCC 13315 assessed as growth inhibition by broth dilution method
[3] = system: Aspergillus flavus; assay: Antimicrobial activity against Aspergillus flavus ATCC 15517 assessed as growth inhibition by broth dilution method
[4] = system: Aspergillus awamori; assay: Antimicrobial activity against Aspergillus awamori ATCC 22342 assessed as growth inhibition by broth dilution method
[5] = system: Staphylococcus hominis; assay: Antimicrobial activity against Staphylococcus hominis ATCC 27844 assessed as growth inhibition by broth dilution method
[6] = system: Alternaria alternata; assay: Antimicrobial activity against Alternaria alternata ATCC 66868 assessed as growth inhibition by broth dilution method
[7] = system: Aspergillus fumigatus; assay: Antimicrobial activity against Aspergillus fumigatus assessed as growth inhibition by broth dilution method
[8] = system: Staphylococcus aureus; assay: Antimicrobial activity against Staphylococcus aureus ATCC 25923 assessed as growth inhibition by broth dilution method
[9] = system: Rhizoctonia solani; assay: Antimicrobial activity against Rhizoctonia solani ATCC 76131 assessed as growth inhibition by broth dilution method
[10] = system: Bacillus cereus; assay: Antimicrobial activity against Bacillus cereus ATCC 11778 assessed as growth inhibition by broth dilution method
[11] = system: Bacillus pumilus; assay: Antimicrobial activity against Bacillus pumilus ATCC 14884 assessed as growth inhibition by broth dilution method
[12] = system: Pseudomonas aeruginosa; assay: Antimicrobial activity against Pseudomonas aeruginosa ATCC 10145 assessed as growth inhibition by broth dilution method
[13] = system: Trichoderma viride; assay: Antimicrobial activity against Hypocrea rufa ATCC 52440 assessed as growth inhibition by broth dilution method
[14] = system: Micrococcus luteus; assay: Antimicrobial activity against Micrococcus luteus ATCC 4698 assessed as growth inhibition by broth dilution method
[15] = system: Trichophyton longifusum; assay: Antimicrobial activity against Trichophyton longifusum ATCC 22397 assessed as growth inhibition by broth dilution method
[16] = system: Microsporum canis; assay: Antimicrobial activity against Arthroderma otae ATCC 11622 assessed as growth inhibition by broth dilution method
[17] = system: Klebsiella pneumoniae; assay: Antimicrobial activity against Klebsiella pneumoniae ATCC 13883 assessed as growth inhibition by broth dilution method
[18] = system: Fusarium solani; assay: Antimicrobial activity against Fusarium solani ATCC 38136 assessed as growth inhibition by broth dilution method
[19] = system: Proteus mirabilis; assay: Antimicrobial activity against Proteus mirabilis ATCC 49565 assessed as growth inhibition by broth dilution method
[20] = system: Candida albicans; assay: Antimicrobial activity against Candida albicans ATCC 10231 assessed as growth inhibition by broth dilution method
[21] = system: Salmonella typhi; assay: Antimicrobial activity against Salmonella enterica subsp. enterica serovar Typhi ATCC 19430 assessed as growth inhibition by broth dilution method
[22] = system: Aspergillus niger; assay: Antimicrobial activity against Aspergillus niger ATCC 9142 assessed as growth inhibition by broth dilution method
[23] = system: Bacillus subtilis; assay: Antimicrobial activity against Bacillus subtilis ATCC 6633 assessed as growth inhibition by broth dilution method
[24] = system: Escherichia coli; assay: Antimicrobial activity against Escherichia coli ATCC 25922 assessed as growth inhibition by broth dilution method

Row | SMILES | MIC [1] [µg/mL] | MIC [2] [µg/mL] | MIC [3] [µg/mL] | MIC [4] [µg/mL] | MIC [5] [µg/mL] | MIC [6] [µg/mL] | MIC [7] [µg/mL] | MIC [8] [µg/mL] | MIC [9] [µg/mL] | MIC [10] [µg/mL] | MIC [11] [µg/mL] | MIC [12] [µg/mL] | MIC [13] [µg/mL] | MIC [14] [µg/mL] | MIC [15] [µg/mL] | MIC [16] [µg/mL] | MIC [17] [µg/mL] | MIC [18] [µg/mL] | MIC [19] [µg/mL] | MIC [20] [µg/mL] | further results
1 | COc1ccc(C2SCC(=O)N2CCN2CCNCC2)cc1O (centres undefined) | 9.37 (≈ 27.8 µM) | 9.37 (≈ 27.8 µM) | 9.37 (≈ 27.8 µM) | 9.37 (≈ 27.8 µM) | 9.37 (≈ 27.8 µM) | 18.8 (≈ 55.6 µM) | 9.37 (≈ 27.8 µM) | 9.37 (≈ 27.8 µM) | 9.37 (≈ 27.8 µM) | 4.68 (≈ 13.9 µM) | 9.37 (≈ 27.8 µM) | 9.37 (≈ 27.8 µM) | 18.8 (≈ 55.6 µM) | 9.37 (≈ 27.8 µM) | 18.8 (≈ 55.6 µM) | 9.37 (≈ 27.8 µM) | 4.68 (≈ 13.9 µM) | 18.8 (≈ 55.6 µM) | 9.37 (≈ 27.8 µM) | 9.37 (≈ 27.8 µM) | MIC [21]: 9.37 µg/mL (≈ 27.8 µM); MIC [22]: 18.8 µg/mL (≈ 55.6 µM); MIC [23]: 9.37 µg/mL (≈ 27.8 µM); MIC [24]: 9.37 µg/mL (≈ 27.8 µM)
2 | COc1ccc(C2SCC(=O)N2CCN2CCNCC2)cc1 (centres undefined) | 9.37 (≈ 29.1 µM) | 9.37 (≈ 29.1 µM) | 18.8 (≈ 58.3 µM) | 9.73 (≈ 30.3 µM) | 4.68 (≈ 14.6 µM) | 18.8 (≈ 58.3 µM) | 9.73 (≈ 30.3 µM) | 9.37 (≈ 29.1 µM) | 9.73 (≈ 30.3 µM) | 4.68 (≈ 14.6 µM) | 9.37 (≈ 29.1 µM) | 9.37 (≈ 29.1 µM) | 9.73 (≈ 30.3 µM) | 9.37 (≈ 29.1 µM) | 18.8 (≈ 58.3 µM) | 18.8 (≈ 58.3 µM) | 9.37 (≈ 29.1 µM) | 18.8 (≈ 58.3 µM) | 9.37 (≈ 29.1 µM) | 9.73 (≈ 30.3 µM) | MIC [21]: 4.68 µg/mL (≈ 14.6 µM); MIC [22]: 18.8 µg/mL (≈ 58.3 µM); MIC [23]: 9.37 µg/mL (≈ 29.1 µM); MIC [24]: 9.37 µg/mL (≈ 29.1 µM)
3 | COc1ccc(C2C(Cl)C(=O)N2CCN2CCN(C(=O)CCl)CC2)cc1 (centres undefined) | 4.68 (≈ 11.7 µM) | 9.37 (≈ 23.4 µM) | 9.37 (≈ 23.4 µM) | 9.37 (≈ 23.4 µM) | 4.68 (≈ 11.7 µM) | 9.37 (≈ 23.4 µM) | 9.37 (≈ 23.4 µM) | 9.37 (≈ 23.4 µM) | 9.37 (≈ 23.4 µM) | 9.37 (≈ 23.4 µM) | 9.37 (≈ 23.4 µM) | 9.37 (≈ 23.4 µM) | 18.8 (≈ 46.8 µM) | 9.37 (≈ 23.4 µM) | 9.37 (≈ 23.4 µM) | 18.8 (≈ 46.8 µM) | 9.37 (≈ 23.4 µM) | 18.8 (≈ 46.8 µM) | 9.37 (≈ 23.4 µM) | 18.8 (≈ 46.8 µM) | MIC [21]: 9.37 µg/mL (≈ 23.4 µM); MIC [22]: 18.8 µg/mL (≈ 46.8 µM); MIC [23]: 9.37 µg/mL (≈ 23.4 µM); MIC [24]: 4.68 µg/mL (≈ 11.7 µM)
4 | O=C(CCl)N1CCN(CCN2C(=O)C(Cl)C2c2cccc(O)c2)CC1 (centres undefined) | 18.8 (≈ 48.5 µM) | 18.8 (≈ 48.5 µM) | 75 (≈ 194 µM) | 75 (≈ 194 µM) | 37.5 (≈ 97.1 µM) | 37.5 (≈ 97.1 µM) | 75 (≈ 194 µM) | 37.5 (≈ 97.1 µM) | 37.5 (≈ 97.1 µM) | 37.5 (≈ 97.1 µM) | 37.5 (≈ 97.1 µM) | 37.5 (≈ 97.1 µM) | 37.5 (≈ 97.1 µM) | 18.8 (≈ 48.5 µM) | 75 (≈ 194 µM) | 75 (≈ 194 µM) | 37.5 (≈ 97.1 µM) | 37.5 (≈ 97.1 µM) | 37.5 (≈ 97.1 µM) | 37.5 (≈ 97.1 µM) | MIC [21]: 37.5 µg/mL (≈ 97.1 µM); MIC [22]: 37.5 µg/mL (≈ 97.1 µM); MIC [23]: 18.8 µg/mL (≈ 48.5 µM); MIC [24]: 18.8 µg/mL (≈ 48.5 µM)
5 | O=C1CSC(c2ccc(O)cc2)N1CCN1CCNCC1 (centres undefined) | 9.37 (≈ 30.5 µM) | 4.68 (≈ 15.2 µM) | 18.8 (≈ 61 µM) | 18.8 (≈ 61 µM) | 9.37 (≈ 30.5 µM) | 18.8 (≈ 61 µM) | 9.37 (≈ 30.5 µM) | 9.37 (≈ 30.5 µM) | 18.8 (≈ 61 µM) | 9.37 (≈ 30.5 µM) | 9.37 (≈ 30.5 µM) | 9.37 (≈ 30.5 µM) | 18.8 (≈ 61 µM) | 9.37 (≈ 30.5 µM) | 9.73 (≈ 31.7 µM) | 18.8 (≈ 61 µM) | 9.37 (≈ 30.5 µM) | 9.73 (≈ 31.7 µM) | 9.37 (≈ 30.5 µM) | 9.73 (≈ 31.7 µM) | MIC [21]: 9.37 µg/mL (≈ 30.5 µM); MIC [22]: 18.8 µg/mL (≈ 61 µM); MIC [23]: 4.68 µg/mL (≈ 15.2 µM); MIC [24]: 4.68 µg/mL (≈ 15.2 µM)
6 | Clc1ccccc1C(c1ccccc1)(c1ccccc1)n1ccnc1 [CLOTRIMAZOLE] |  |  | 2.34 (≈ 6.79 µM) | 4.68 (≈ 13.6 µM) |  | 1.17 (≈ 3.39 µM) | 4.68 (≈ 13.6 µM) |  | 2.34 (≈ 6.79 µM) |  |  |  | 2.34 (≈ 6.79 µM) |  | 4.68 (≈ 13.6 µM) | 4.68 (≈ 13.6 µM) |  | 4.68 (≈ 13.6 µM) |  | 2.34 (≈ 6.79 µM) | MIC [22]: 2.34 µg/mL (≈ 6.79 µM)
7 | O=C(O)c1cn(C2CC2)c2cc(N3CCNCC3)c(F)cc2c1=O [CIPROFLOXACIN] | 2.34 (≈ 7.06 µM) | 2.34 (≈ 7.06 µM) |  |  | 2.34 (≈ 7.06 µM) |  |  | 2.34 (≈ 7.06 µM) |  | 2.34 (≈ 7.06 µM) | 2.34 (≈ 7.06 µM) | 2.34 (≈ 7.06 µM) |  | 2.34 (≈ 7.06 µM) |  |  | 2.34 (≈ 7.06 µM) |  | 2.34 (≈ 7.06 µM) |  | MIC [21]: 2.34 µg/mL (≈ 7.06 µM); MIC [23]: 2.34 µg/mL (≈ 7.06 µM); MIC [24]: 2.34 µg/mL (≈ 7.06 µM)
